In patent US20240398771A1, “TREATMENT OF SCLERODERMA AND RAYNAUD'S SYNDROME” (Aisa Pharma, Inc., priority 2023, published 2024):

Columns and labels:
participants with SSc-RP [1] = experiment: Frequency of weekly symptomatic RP attacks (patient diary), Phase 2a Part A; type: in vivo, human; conditions: ITT Part A; for Weekly Symptomatic RP Attacks Percent Change from Baseline, Min / Weekly Symptomatic RP Attacks Change from Baseline, Max / Weekly Symptomatic RP Attacks Change from Baseline, Min / Weekly Symptomatic RP Attacks Change from Baseline, Q1 / Weekly Symptomatic RP Attacks Change from Baseline, Q3 / Weekly Symptomatic RP Attacks Percent Change from Baseline, Max / Weekly Symptomatic RP Attacks Percent Change from Baseline, Q3: Table A-3 by baseline RCS, first sub-table (RCS <5.0)
Method: Part A—Double-blind, Placebo-controlled, Parallel-group, Dose selection, will assess the safety and efficacy of two doses of cilnidipine (10 mg and 20 mg), alone and in combination with tadalafil. A total of 36 participants will be randomized to one of six pre-specified treatment arms. See Example 3 for data obtained in this phase of the study thus far, on 11 participants.
Please refer to FIG. 1 for treatment arms in Part A of the study. Dosing lasted or will last for 12 (±2) days in which participants self-administered or will self-administer daily doses of assigned treatment in the morning. Each participant took or will take one capsule and one tablet to blind the active therapy being received.
(§1) The relevant metrics measured by this tool daily are: • Study medication • SSc-RP symptoms (Reporting an attack including duration of attack) • Severity of the attack considering all symptoms of the attack e.g. tingling, numbness, pain, color changes (VAS 0-10 cm scale) • Participant's location at the time of the attack (inside home/outside home) • Selecting symptoms experienced during the attack (tingling, numbness, pain, color changes, other) • Pain rating during the attack (11-point Likert scale) • The RCS based on how much difficulty participants had with Raynaud's today, how many attacks the participant had, and how long they lasted. Participants will also be asked to consider how much pain, numbness, or other symptoms the Raynaud's caused in fingers (including painful sores), and how much the Raynaud's alone affected the use of hands today (VAS 0-10 cm scale).
Percent change from baseline evaluation for frequency of weekly RP attacks were or will be used as the primary efficacy variable. The sponsor-developed participant-informed diary will be used to record data. Frequency of weekly RP attacks is defined as the total number of RP attacks divided by the number of days with available diary data within the last 7 days of each dosing period then multiplied by 7. Total number of RP attacks during the last 7 days of screening period divided by the number of days with available data then multiplied by 7 will be used as baseline for the analysis of all periods.
Percentage change={(weekly RP attacks for the last 7 days of each dosing period−Baseline weekly RP attacks)/Baseline weekly RP attacks}*100%.
Absolute change=weekly RP attacks for the last 7 days of each dosing period−Baseline weekly RP attacks
Percent change from baseline evaluation for frequency of weekly RP attacks was and will be the primary efficacy endpoint. Frequency of weekly RP attacks is defined as the total number of RP attacks divided by the number of days with available diary data within the last 7 days of each dosing period then multiplied by 7. Total number of RP attacks during the last 7 days of screening period divided by the number of days with available data then multiplied by 7 will be used as baseline for the analysis of all periods.
The following data was actually obtained in accordance with the protocol and plan delineated in Examples 1 and 2. The accompanying data involved 11 patients out of the planned 76 patient study. The study was done in patients with scleroderma (systemic sclerosis) who had relatively frequent Raynaud symptoms as they needed to average at least one attack per day during a screening period of up to two weeks. In this first phase of this double-blind placebo-controlled, prospective randomized study, patients were treated in parallel and after meeting study criteria were randomized to receive either placebo, cilnidipine 10 mg daily, cilnidipine 20 mg daily, tadalafil 5 mg daily, cilnidipine 10 mg plus 5 mg of tadalafil, or cilnidipine 20 mg plus 5 mg of tadalafil.

participants with SSc-RP [2] = experiment: Average severity (0-10) of weekly RP attacks, all attacks; type: in vivo, human; conditions: excluding outliers, ITT Part A
Excerpt: as §1
The absolute change in average severity of weekly RP attacks (VAS 0-10 cm scale) from baseline to the end of each Dosing Period was and will be a secondary outcome variable. The sponsor-developed participant-informed diary will be used to record data. Average severity of weekly RP attacks is defined as the total severity scores of RP attacks divided by total number of RP attacks within the last 7 days of each dosing period. Total severity scores of RP attacks during the last 7 days of screening period divided by the total number of RP attacks will be used as baseline for the analysis of all periods. The variable will be calculated similar to frequency data as before.

[3] = Table A-2, excluding outliers, last 7 days of dosing period, listed as Pooled Cilnidipine
[4] = Cilnidipine 10 mg, baseline RCS subgroup 1 of 2
[5] = Cilnidipine 20 mg, baseline RCS subgroup 1 of 2
[6] = Pooled Cilnidipine 10 mg and Cilnidipine 10 mg + Tadalafil 5 mg, baseline RCS subgroup 1 of 2
[7] = Pooled Cilnidipine 10 mg and Cilnidipine 10 mg + Tadalafil 5 mg, baseline RCS subgroup 2 of 2
[8] = Pooled Cilnidipine 20 mg and Cilnidipine 20 mg + Tadalafil 5 mg, baseline RCS subgroup 1 of 2
[9] = Pooled Cilnidipine 20 mg and Cilnidipine 20 mg + Tadalafil 5 mg, baseline RCS subgroup 2 of 2
[10] = Pooled Cilnidipine, baseline RCS subgroup 1 of 2

COCCOC(=O)C1=C(C)NC(C)=C(C(=O)OC/C=C/c2ccccc2)C1c1cccc([N+](=O)[O-])c1 (centres unmarked) [Cilnidipine, 1,4-dihydro-2,6-dimethyl,4-(3-nitrophenyl)-3,5-pyridinedicarboxylic acid 2-methoxyethyl (2 E)-3-phenyl-2-propenyl ester]
Weekly Symptomatic RP Attacks, Max (participants with SSc-RP [1]; [3]): 14.0
Weekly Symptomatic RP Attacks, Mean (SD) (participants with SSc-RP [1]; [3]): 10.00 (4.583)
Weekly Symptomatic RP Attacks, Min (participants with SSc-RP [1]; [3]): 5.0
Weekly Symptomatic RP Attacks, Q1 (participants with SSc-RP [1]; [3]): 5.00
Weekly Symptomatic RP Attacks, Q3 (participants with SSc-RP [1]; [3]): 14.00
Weekly Symptomatic RP Attacks Percent Change from Baseline, Min (participants with SSc-RP [1]): −33.3, −33.3%
Weekly Symptomatic RP Attacks Change from Baseline, Max (participants with SSc-RP [1]; listed as Cilnidipine 10 mg): −7.0, −7.0
Weekly Symptomatic RP Attacks Change from Baseline, Min (participants with SSc-RP [1]; listed as Cilnidipine 10 mg): −7.0, −7.0
Weekly Symptomatic RP Attacks Change from Baseline, Q1 (participants with SSc-RP [1]; listed as Cilnidipine 10 mg): −7.00, −7.00
Weekly Symptomatic RP Attacks Change from Baseline, Q3 (participants with SSc-RP [1]; listed as Cilnidipine 10 mg): −7.00, −7.00
Weekly Symptomatic RP Attacks Percent Change from Baseline, Max (participants with SSc-RP [1]; listed as Cilnidipine 10 mg): −33.3, −33.3%
Weekly Symptomatic RP Attacks Change from Baseline, Max (participants with SSc-RP [1]; listed as Cilnidipine 20 mg): −2.0
Weekly Symptomatic RP Attacks Change from Baseline, Min (participants with SSc-RP [1]; listed as Cilnidipine 20 mg): −7.0
Weekly Symptomatic RP Attacks Change from Baseline, Q1 (participants with SSc-RP [1]; listed as Cilnidipine 20 mg): −7.00
Weekly Symptomatic RP Attacks Change from Baseline, Q3 (participants with SSc-RP [1]; listed as Cilnidipine 20 mg): −2.00
Weekly Symptomatic RP Attacks Percent Change from Baseline, Max (participants with SSc-RP [1]; listed as Cilnidipine 20 mg): −28.6%
Weekly Symptomatic RP Attacks Percent Change from Baseline, Min (participants with SSc-RP [1]; listed as Cilnidipine 20 mg): −38.9%
Weekly Symptomatic RP Attacks Percent Change from Baseline, Q3 (participants with SSc-RP [1]; listed as Cilnidipine 20 mg): −28.57%
Weekly Symptomatic RP Attacks Change from Baseline, Max (participants with SSc-RP [1]; listed as Pooled Cilnidipine): −2.0
Weekly Symptomatic RP Attacks Change from Baseline, Min (participants with SSc-RP [1]; listed as Pooled Cilnidipine): −7.0
Weekly Symptomatic RP Attacks Change from Baseline, Q1 (participants with SSc-RP [1]; listed as Pooled Cilnidipine): −7.00
Weekly Symptomatic RP Attacks Change from Baseline, Q3 (participants with SSc-RP [1]; listed as Pooled Cilnidipine): −2.00
Weekly Symptomatic RP Attacks Percent Change from Baseline, Max (participants with SSc-RP [1]; listed as Pooled Cilnidipine): −28.6%
Weekly Symptomatic RP Attacks Percent Change from Baseline, Min (participants with SSc-RP [1]; listed as Pooled Cilnidipine): −38.9%
Weekly Symptomatic RP Attacks Percent Change from Baseline, Q3 (participants with SSc-RP [1]; listed as Pooled Cilnidipine): −28.57%
Average Severity of Weekly RP Attacks (All Attacks): Baseline, Mean (participants with SSc-RP [2]; [4]): 3.03
Average Severity of Weekly RP Attacks (All Attacks): Baseline, Median (participants with SSc-RP [2]; [4]): 3.03
Average Severity of Weekly RP Attacks (All Attacks): Average Severity, Mean (participants with SSc-RP [2]; [5]): 2.30
Average Severity of Weekly RP Attacks (All Attacks): Average Severity, Median (participants with SSc-RP [2]; [5]): 2.30
Average Severity of Weekly RP Attacks (All Attacks): Baseline, Mean (participants with SSc-RP [2]; [5]): 3.37
Average Severity of Weekly RP Attacks (All Attacks): Baseline, Median (participants with SSc-RP [2]; [5]): 3.37
Average Severity of Weekly RP Attacks (All Attacks): Average Severity, Mean (participants with SSc-RP [2]; [6]): 2.97
Average Severity of Weekly RP Attacks (All Attacks): Average Severity, Median (participants with SSc-RP [2]; [6]): 2.97
Average Severity of Weekly RP Attacks (All Attacks): Baseline, Mean (participants with SSc-RP [2]; [6]): 4.33
Average Severity of Weekly RP Attacks (All Attacks): Baseline, Median (participants with SSc-RP [2]; [6]): 4.33
Average Severity of Weekly RP Attacks (All Attacks): Average Severity, Mean (participants with SSc-RP [2]; [7]): 4.90
Average Severity of Weekly RP Attacks (All Attacks): Average Severity, Median (participants with SSc-RP [2]; [7]): 4.90
Average Severity of Weekly RP Attacks (All Attacks): Baseline, Mean (participants with SSc-RP [2]; [7]): 6.22
Average Severity of Weekly RP Attacks (All Attacks): Baseline, Median (participants with SSc-RP [2]; [7]): 6.22
Average Severity of Weekly RP Attacks (All Attacks): Average Severity, Mean (participants with SSc-RP [2]; [8]): 2.78
Average Severity of Weekly RP Attacks (All Attacks): Average Severity, Median (participants with SSc-RP [2]; [8]): 2.40
Average Severity of Weekly RP Attacks (All Attacks): Baseline, Median (participants with SSc-RP [2]; [8]): 4.12
Average Severity of Weekly RP Attacks (All Attacks): Baseline, Mean (participants with SSc-RP [2]; [9]): 6.59
Average Severity of Weekly RP Attacks (All Attacks): Baseline, Median (participants with SSc-RP [2]; [9]): 6.59
Average Severity of Weekly RP Attacks (All Attacks): Average Severity, Median (participants with SSc-RP [2]; [10]): 2.40
Average Severity of Weekly RP Attacks (All Attacks): Baseline, Mean (participants with SSc-RP [2]; [10]): 3.26
Average Severity of Weekly RP Attacks (All Attacks): Baseline, Median (participants with SSc-RP [2]; [10]): 3.03
